Where two headings read alike, the source gives them in different places. Positions of bridges follow the written chain, without caps; N, C: chain ends. Non-standard residues stand in square brackets, D forms with d. Residues, ends and D or L forms follow the SMILES beside them. 1Nal = N[C@@H](Cc1cccc2ccccc12)C(=O)O
Legend:
Assay in all cases: cell-based
hNav1.7 = hNav1.7 (Homo sapiens, UniProt Q15858); type: cell-based; conditions: IonWorks Quattro, read-out: IWQ Use Nav1.7
hNav1.3 = hNav1.3 (Homo sapiens, UniProt Q9NY46); conditions: IonWorks Quattro, read-out: IWQ Use Nav1.3
hNav1.5 = hNav1.5 (Homo sapiens, UniProt Q14524)
Chain of hNav1.5 (Q14524 whole entry, looked up): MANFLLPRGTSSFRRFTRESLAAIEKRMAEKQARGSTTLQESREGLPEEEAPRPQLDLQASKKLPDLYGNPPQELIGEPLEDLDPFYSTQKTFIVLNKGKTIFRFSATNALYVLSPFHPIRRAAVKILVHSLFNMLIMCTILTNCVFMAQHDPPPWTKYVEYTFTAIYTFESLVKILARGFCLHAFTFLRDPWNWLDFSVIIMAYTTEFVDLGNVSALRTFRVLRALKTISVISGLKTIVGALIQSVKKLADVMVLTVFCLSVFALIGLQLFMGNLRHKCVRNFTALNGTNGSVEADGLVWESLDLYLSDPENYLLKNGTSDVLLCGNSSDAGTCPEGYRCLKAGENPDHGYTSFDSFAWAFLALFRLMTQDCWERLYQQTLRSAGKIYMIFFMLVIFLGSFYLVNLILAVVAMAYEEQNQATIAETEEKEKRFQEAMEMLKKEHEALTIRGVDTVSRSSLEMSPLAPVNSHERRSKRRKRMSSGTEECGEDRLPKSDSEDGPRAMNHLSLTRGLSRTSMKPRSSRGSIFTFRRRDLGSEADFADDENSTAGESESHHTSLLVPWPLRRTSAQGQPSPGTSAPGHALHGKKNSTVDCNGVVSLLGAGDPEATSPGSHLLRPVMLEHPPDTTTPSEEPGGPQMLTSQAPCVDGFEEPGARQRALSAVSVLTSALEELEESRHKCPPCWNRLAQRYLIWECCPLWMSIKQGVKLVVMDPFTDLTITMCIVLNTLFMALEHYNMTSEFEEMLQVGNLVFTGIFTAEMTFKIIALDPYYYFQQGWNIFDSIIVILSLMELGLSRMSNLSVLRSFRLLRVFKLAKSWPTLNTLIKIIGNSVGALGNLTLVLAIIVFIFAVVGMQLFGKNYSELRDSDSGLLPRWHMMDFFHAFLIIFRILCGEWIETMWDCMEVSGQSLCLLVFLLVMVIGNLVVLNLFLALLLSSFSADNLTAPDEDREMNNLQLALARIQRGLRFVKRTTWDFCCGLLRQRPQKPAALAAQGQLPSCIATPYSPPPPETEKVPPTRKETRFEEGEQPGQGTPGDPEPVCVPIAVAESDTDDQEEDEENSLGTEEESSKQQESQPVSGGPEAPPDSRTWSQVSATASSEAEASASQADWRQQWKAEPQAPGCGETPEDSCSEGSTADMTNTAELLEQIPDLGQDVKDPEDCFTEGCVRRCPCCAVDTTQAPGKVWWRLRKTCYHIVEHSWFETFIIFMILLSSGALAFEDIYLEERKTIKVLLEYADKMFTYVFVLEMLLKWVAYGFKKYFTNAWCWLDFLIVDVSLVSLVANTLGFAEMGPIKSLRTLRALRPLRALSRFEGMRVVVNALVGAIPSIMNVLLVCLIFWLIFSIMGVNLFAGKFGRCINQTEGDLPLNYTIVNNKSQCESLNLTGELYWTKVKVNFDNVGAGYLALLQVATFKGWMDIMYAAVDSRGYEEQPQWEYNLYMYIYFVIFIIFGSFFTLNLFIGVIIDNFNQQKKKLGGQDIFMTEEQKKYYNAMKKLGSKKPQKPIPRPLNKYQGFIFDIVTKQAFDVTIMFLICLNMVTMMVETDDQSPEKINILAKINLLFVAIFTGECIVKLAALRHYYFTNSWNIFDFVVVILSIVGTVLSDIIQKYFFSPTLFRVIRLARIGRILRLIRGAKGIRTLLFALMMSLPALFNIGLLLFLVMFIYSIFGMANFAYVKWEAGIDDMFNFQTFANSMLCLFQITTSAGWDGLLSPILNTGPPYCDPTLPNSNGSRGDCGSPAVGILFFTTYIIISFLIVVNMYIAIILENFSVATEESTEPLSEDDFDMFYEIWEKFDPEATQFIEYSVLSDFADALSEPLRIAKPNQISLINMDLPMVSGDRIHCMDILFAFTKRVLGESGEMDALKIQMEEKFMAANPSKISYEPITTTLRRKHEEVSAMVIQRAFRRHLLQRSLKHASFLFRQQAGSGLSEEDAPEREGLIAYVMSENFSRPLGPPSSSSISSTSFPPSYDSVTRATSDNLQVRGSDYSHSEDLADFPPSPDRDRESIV

[1] = clamped to −110 mV, depolarized to −10 mV, 5 min after compound, n=2
[2] = IonWorks Quattro, use-dependent block, hNav1.5, read-out: IWQ Use Nav1.5
[3] = IonWorks Quattro, Use, read-out: IWQ Use Nav1.5

Chain of hNav1.7 (Q15858 whole entry, looked up): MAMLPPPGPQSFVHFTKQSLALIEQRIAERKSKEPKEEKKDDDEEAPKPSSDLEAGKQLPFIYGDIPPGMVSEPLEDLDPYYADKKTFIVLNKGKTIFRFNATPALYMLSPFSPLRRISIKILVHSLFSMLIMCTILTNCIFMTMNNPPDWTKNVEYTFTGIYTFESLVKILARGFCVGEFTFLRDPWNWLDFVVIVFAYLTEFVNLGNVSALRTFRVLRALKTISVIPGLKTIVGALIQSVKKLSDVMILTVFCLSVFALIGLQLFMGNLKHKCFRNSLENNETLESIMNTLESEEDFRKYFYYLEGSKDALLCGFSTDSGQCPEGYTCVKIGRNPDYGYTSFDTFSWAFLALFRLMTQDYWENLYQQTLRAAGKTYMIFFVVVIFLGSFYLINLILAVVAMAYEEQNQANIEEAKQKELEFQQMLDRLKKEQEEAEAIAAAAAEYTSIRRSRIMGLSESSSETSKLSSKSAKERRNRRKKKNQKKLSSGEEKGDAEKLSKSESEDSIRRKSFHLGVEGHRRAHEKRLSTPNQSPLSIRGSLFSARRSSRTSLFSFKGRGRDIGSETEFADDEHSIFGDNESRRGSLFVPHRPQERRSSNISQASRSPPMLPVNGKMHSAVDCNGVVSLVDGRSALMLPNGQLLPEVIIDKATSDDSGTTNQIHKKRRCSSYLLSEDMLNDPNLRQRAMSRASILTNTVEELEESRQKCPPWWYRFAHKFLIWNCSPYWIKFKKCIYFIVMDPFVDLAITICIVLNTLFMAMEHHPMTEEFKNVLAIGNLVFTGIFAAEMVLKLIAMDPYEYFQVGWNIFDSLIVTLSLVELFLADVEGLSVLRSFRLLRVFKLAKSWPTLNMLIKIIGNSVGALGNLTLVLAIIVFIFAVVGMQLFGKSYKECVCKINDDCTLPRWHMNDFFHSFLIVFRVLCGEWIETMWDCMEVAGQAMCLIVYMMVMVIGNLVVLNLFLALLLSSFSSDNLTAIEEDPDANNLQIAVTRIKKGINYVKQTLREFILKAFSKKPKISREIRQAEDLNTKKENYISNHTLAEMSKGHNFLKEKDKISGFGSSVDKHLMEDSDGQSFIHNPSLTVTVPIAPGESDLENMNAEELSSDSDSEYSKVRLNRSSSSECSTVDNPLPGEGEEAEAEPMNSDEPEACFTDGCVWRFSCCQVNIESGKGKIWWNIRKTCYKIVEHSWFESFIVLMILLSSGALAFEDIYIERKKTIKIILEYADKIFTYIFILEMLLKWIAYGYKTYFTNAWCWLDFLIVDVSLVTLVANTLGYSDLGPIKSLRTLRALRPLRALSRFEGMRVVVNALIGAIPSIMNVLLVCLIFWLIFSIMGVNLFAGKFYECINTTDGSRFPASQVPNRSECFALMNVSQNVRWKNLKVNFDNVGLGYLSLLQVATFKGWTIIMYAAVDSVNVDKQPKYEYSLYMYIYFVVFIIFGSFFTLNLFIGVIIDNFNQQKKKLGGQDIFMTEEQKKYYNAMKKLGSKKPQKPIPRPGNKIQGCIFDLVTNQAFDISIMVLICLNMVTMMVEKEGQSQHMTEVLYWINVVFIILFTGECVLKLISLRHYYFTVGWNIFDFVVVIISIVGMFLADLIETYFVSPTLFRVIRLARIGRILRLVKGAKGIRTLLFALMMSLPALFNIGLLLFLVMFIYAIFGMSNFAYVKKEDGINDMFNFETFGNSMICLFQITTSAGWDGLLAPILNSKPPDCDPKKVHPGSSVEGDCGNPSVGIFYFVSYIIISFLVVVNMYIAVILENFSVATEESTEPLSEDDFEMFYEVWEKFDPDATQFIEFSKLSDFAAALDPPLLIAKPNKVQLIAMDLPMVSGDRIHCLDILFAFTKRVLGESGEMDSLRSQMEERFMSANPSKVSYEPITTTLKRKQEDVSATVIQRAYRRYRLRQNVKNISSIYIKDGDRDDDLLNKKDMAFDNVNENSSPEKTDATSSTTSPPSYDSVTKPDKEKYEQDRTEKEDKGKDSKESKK

| Structure (SMILES) | IC50 (hNav1.7; use-dependent block, hNav1.7) [µM] | IC50 (hNav1.3; use-dependent block, hNav1.3) [µM] | IC50 (hNav1.5; [2]) [µM] | IC50 (hNav1.7; Use) [µM] | IC50 (hNav1.3; Use) [µM] | IC50 (hNav1.5; [3]) [µM] | further results |
| --- | --- | --- | --- | --- | --- | --- | --- |
| CC[C@H](C)[C@@H]1NC(=O)[C@@H]2CSSC[C@@H]3NC(=O)[C@H](C(C)C)NC(=O)[C@H](CC(C)C)NC(=O)[C@H](CC(N)=O)NC(=O)[C@@H]4CCCN4C(=O)[C@H](CCCNC(=N)N)NC(=O)[C@H](CSSC[C@H](NC(=O)[C@@H](N)CC(=O)O)C(=O)N[C@@H](CC(C)C)C(=O)NCC(=O)N[C@@H](Cc4ccccc4)C(=O)N[C@@H](CC(N)=O)C(=O)N[C@@H](CCCNC(=N)N)C(=O)N[C@@H](CCCCN)C(=O)N2)NC(=O)[C@H](CSSC[C@@H](C(=O)N[C@@H](CCCCN)C(=O)N[C@@H](Cc2ccc(O)cc2)C(=O)N[C@H](C(=O)N[C@@H](Cc2ccccc2)C(N)=O)C(C)C)NC(=O)[C@H](Cc2c[nH]c4ccccc24)NC(=O)[C@H](CCCCN)NC(=O)[C@H](Cc2c[nH]cn2)NC(=O)[C@H]([C@@H](C)O)NC(=O)[C@H](CCCNC(=N)N)NC(=O)[C@H](CO)NC3=O)NC(=O)[C@H](CCCCN)NC(=O)[C@H](CC(=O)O)NC(=O)[C@H](CC(N)=O)NC(=O)[C@H](CC(=O)O)NC(=O)[C@@H]2CCCN2C1=O [SEQ ID NO: 278] (H-DCLGFNRKCIPDNDKCCRPNLVCSRTHKWCKYVF-NH2; disulfide 2-17, 9-23, 16-30) |  |  |  |  |  |  | IC50 (hNav1.7; [1]): 6.89 µM; IC50 (hNav1.3; [1]): 6.28 µM; IC50 (hNav1.5; IonWorks Quattro, clamped to −110 mV, depolarized to −10 mV, 5 min after compound, n=2, read-out: IWQ Use Nav1.5): 10.3 µM |
| CC[C@H](C)[C@@H]1NC(=O)[C@@H]2CSSC[C@@H]3NC(=O)[C@H](C(C)C)NC(=O)[C@H](CC(C)C)NC(=O)[C@H](CC(N)=O)NC(=O)[C@@H]4CCCN4C(=O)[C@H](CCCNC(=N)N)NC(=O)[C@H](CSSC[C@H](NC(=O)[C@@H](N)CC(=O)O)C(=O)N[C@@H](CC(C)C)C(=O)NCC(=O)N[C@@H](C)C(=O)N[C@@H](Cc4ccccc4)C(=O)N[C@@H](CCCNC(=N)N)C(=O)N[C@@H](CCCCN)C(=O)N2)NC(=O)[C@H](CSSC[C@@H](C(=O)N[C@@H](CCCCN)C(=O)N[C@@H](Cc2ccc(O)cc2)C(=O)N[C@H](C(=O)N[C@@H](Cc2ccccc2)C(=O)O)C(C)C)NC(=O)[C@H](Cc2c[nH]c4ccccc24)NC(=O)[C@H](CCCNC(=N)N)NC(=O)[C@H](Cc2c[nH]cn2)NC(=O)[C@H]([C@@H](C)O)NC(=O)[C@H](CCCNC(=N)N)NC(=O)[C@H](CO)NC3=O)NC(=O)[C@H](CCCCN)NC(=O)[C@H](CC(=O)O)NC(=O)[C@H](CO)NC(=O)[C@H](CC(=O)O)NC(=O)[C@@H]2CCCN2C1=O [compound 849] | > 5 | 1.1 | > 5 |  |  |  |  |
| CSCC[C@@H]1NC(=O)[C@H](Cc2ccccc2)NC(=O)CNC(=O)[C@H](CC(C)C)NC(=O)[C@@H](NC(=O)[C@@H](N)CC(=O)O)CSSC[C@@H]2NC(=O)[C@@H]3CSSC[C@@H](C(=O)N[C@@H](CCCCN)C(=O)N[C@@H](Cc4ccc(O)cc4)C(=O)N[C@H](C(=O)N[C@@H](Cc4ccccc4)C(N)=O)C(C)C)NC(=O)[C@H](Cc4c[nH]c5ccccc45)NC(=O)[C@H](CCCCN)NC(=O)[C@H](Cc4c[nH]cn4)NC(=O)[C@H]([C@@H](C)O)NC(=O)[C@H](CCCNC(=N)N)NC(=O)[C@H](CO)NC(=O)[C@H](CSSC[C@H](NC(=O)[C@H](CCCCN)NC(=O)[C@H](CCCNC(=N)N)NC1=O)C(=O)N1CCC[C@H]1C(=O)N1CCC[C@H]1C(=O)N[C@@H](CC(=O)O)C(=O)N[C@@H](CC(N)=O)C(=O)N[C@@H](CC(=O)O)C(=O)N[C@@H](CCCCN)C(=O)N3)NC(=O)[C@H](C(C)C)NC(=O)[C@H](CC(C)C)NC(=O)[C@H](CC(N)=O)NC(=O)[C@@H]1CCCN1C(=O)[C@H](CCCNC(=N)N)NC2=O [compound 308] (H-DCLGFMRKCPPDNDKCCRPNLVCSRTHKWCKYVF-NH2; disulfide 2-17, 9-23, 16-30) |  |  |  | 0.4 | 0.24 | > 5 |  |
| CC[C@H](C)[C@@H]1NC(=O)[C@@H]2CSSC[C@@H]3NC(=O)[C@H](C(C)C)NC(=O)[C@H](CC(C)C)NC(=O)[C@H](CC(N)=O)NC(=O)[C@@H]4CCCN4C(=O)[C@H](CCCNC(=N)N)NC(=O)[C@H](CSSC[C@H](NC(=O)[C@@H](N)CC(=O)O)C(=O)N[C@@H](CC(C)C)C(=O)NCC(=O)N[C@@H](C)C(=O)N[C@@H](Cc4ccccc4)C(=O)N[C@@H](CCCNC(=N)N)C(=O)N[C@@H](CCCCN)C(=O)N2)NC(=O)[C@H](CSSC[C@@H](C(=O)N[C@@H](CCCCN)C(=O)N[C@@H](Cc2ccc(O)cc2)C(=O)N[C@H](C(=O)N[C@@H](Cc2ccccc2)C(=O)O)C(C)C)NC(=O)[C@H](Cc2c[nH]c4ccccc24)NC(=O)[C@H](CCCNC(=N)N)NC(=O)[C@H](Cc2c[nH]cn2)NC(=O)[C@H]([C@@H](C)O)NC(=O)[C@H](CCCNC(=N)N)NC(=O)[C@H](CO)NC3=O)NC(=O)[C@H](CCCCN)NC(=O)[C@H](CC(=O)O)NC(=O)[C@H](CC(C)C)NC(=O)[C@H](CC(=O)O)NC(=O)[C@@H]2CCCN2C1=O [compound 844] | 4.5 | 4.5 | > 5 |  |  |  |  |
| CC[C@H](C)[C@@H]1NC(=O)[C@@H]2CSSC[C@@H]3NC(=O)[C@H](C(C)C)NC(=O)[C@H](CC(C)C)NC(=O)[C@H](CC(N)=O)NC(=O)[C@@H]4CCCN4C(=O)[C@H](CCCNC(=N)N)NC(=O)[C@H](CSSC[C@H](NC(=O)[C@@H](N)CC(=O)O)C(=O)N[C@@H](CC(C)C)C(=O)NCC(=O)N[C@@H](Cc4ccccc4)C(=O)N[C@@H](CCSC)C(=O)N[C@@H](CCCNC(=N)N)C(=O)N[C@@H](CCCCN)C(=O)N2)NC(=O)[C@H](CSSC[C@@H](C(=O)N[C@@H](CCCCN)C(=O)N[C@@H](Cc2ccc(O)cc2)C(=O)N[C@@H](Cc2cccc4ccccc24)C(=O)N[C@@H](Cc2ccccc2)C(N)=O)NC(=O)[C@H](Cc2c[nH]c4ccccc24)NC(=O)[C@H](CCCCN)NC(=O)[C@H](Cc2cnc[nH]2)NC(=O)[C@H]([C@@H](C)O)NC(=O)[C@H](CCCNC(=N)N)NC(=O)[C@H](CO)NC3=O)NC(=O)[C@H](CCCCN)NC(=O)[C@H](CC(=O)O)NC(=O)[C@H](CC(N)=O)NC(=O)[C@H](CC(=O)O)NC(=O)[C@@H]2CCCN2C1=O [compound 168] (H-DCLGFMRKCIPDNDKCCRPNLVCSRTHKWCKY[1Nal]F-NH2; disulfide 2-17, 9-23, 16-30) |  |  |  |  |  |  | IC50 (hNav1.7; Table 26, use, […]): 0.06 µM; IC50 (hNav1.3; Table 26, use, […]): 0.02 µM; IC50 (hNav1.5; IWQ Use Nav1.5 (μM)): 15.7 µM |
| CC[C@H](C)[C@@H]1NC(=O)[C@@H]2CSSC[C@@H]3NC(=O)[C@H](C(C)C)NC(=O)[C@H](CC(C)C)NC(=O)[C@H](CC(N)=O)NC(=O)[C@@H]4CCCN4C(=O)[C@H](CCCNC(=N)N)NC(=O)[C@H](CSSC[C@H](NC(=O)[C@@H](N)CC(=O)O)C(=O)N[C@@H](CC(C)C)C(=O)NCC(=O)N[C@@H](Cc4ccccc4)C(=O)N[C@@H](CCSC)C(=O)N[C@@H](CCCNC(=N)N)C(=O)N[C@@H](CCCCN)C(=O)N2)NC(=O)[C@H](CSSC[C@@H](C(=O)N[C@@H](CCCCN)C(=O)N[C@@H](Cc2ccc(O)cc2)C(=O)N[C@H](C(=O)N[C@@H](Cc2ccccc2)C(N)=O)C(C)C)NC(=O)[C@H](Cc2c[nH]c4ccccc24)NC(=O)[C@H](CCCCN)NC(=O)[C@H](Cc2cnc[nH]2)NC(=O)[C@H]([C@@H](C)O)NC(=O)[C@H](CCCNC(=N)N)NC(=O)[C@H](CO)NC3=O)NC(=O)[C@H](CCCCN)NC(=O)[C@H](CC(=O)O)NC(=O)[C@H](CC(N)=O)NC(=O)[C@H](CC(=O)O)NC(=O)[C@H](C)NC1=O [compound 46] (H-DCLGFMRKCIADNDKCCRPNLVCSRTHKWCKYVF-NH2; disulfide 2-17, 9-23, 16-30) |  |  |  | 0.21 | 0.18 | 16.1 |  |

— patent US9340590B2 (priority 2011, dated 2016)
